The subject of experiment [1] is Streptococcus pneumoniae. Briefly: Antimicrobial activity against Streptococcus pneumoniae ATCC 6305 after 48 hrs by microtiter plate assay. The conditions noted are these: ATCC 6305, 48 h. The experiment is classed as functional.
The target in experiment [2] is T1, Peptide deformylase (Pseudomonas aeruginosa (strain ATCC 15692 / PAO1 / 1C / PRS 101 / LMG12228), UniProt Q9I7A8).
T1 sequence (Q9I7A8 whole entry): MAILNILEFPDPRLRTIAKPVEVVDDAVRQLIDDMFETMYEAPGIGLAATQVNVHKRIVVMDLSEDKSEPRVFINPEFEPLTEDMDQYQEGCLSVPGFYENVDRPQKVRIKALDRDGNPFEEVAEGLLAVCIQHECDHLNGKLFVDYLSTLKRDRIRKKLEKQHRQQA
Briefly: Inhibition of Pseudomonas aeruginosa peptide deformylase after 10 mins by fluorescence assay.

In experiment [3] the test system is Staphylococcus aureus. Briefly: Antimicrobial activity against Staphylococcus aureus ATCC 6538p after 24 hrs by microtiter plate assay. It is filed as functional.
The test system of experiment [4] is Moraxella catarrhalis. Kind of experiment: Antimicrobial activity against Moraxella catarrhalis ATCC 43617 after 48 hrs by microtiter plate assay. It is filed as functional. The conditions noted are these: ATCC 43617, 48 h.
Experiment [5] concerns Haemophilus influenzae. Kind of experiment: Antimicrobial activity against Haemophilus influenzae ATCC 51907 after 24 hrs by microtiter plate assay. The experiment is classed as functional. The settings on record: ATCC 51907, 24 h.

Molecules are shown by their SMILES. Values after ≈ are worked out from the molar mass of the structure shown.

20 compounds from ChEMBL document CHEMBL1641371, “Peptide deformylase inhibitors with non-peptide scaffold: synthesis and structure-activity relationships” (Bioorg Med Chem Lett, 2011) can be followed below.

Usually IC50 stands for the midpoint of a concentration-inhibition curve. Read a low IC50 as inhibition by little substance.

For `CCCC[C@H](CN(O)C=O)C(=O)[C@@H]1CCCN1C(=O)OC(C)(C)C`, the MIC in experiment [1] was determined as 6.3 µg/mL (≈ 18.4 µM); in experiment [3] it was 12.5 µg/mL (≈ 36.5 µM); in experiment [4], 0.4 µg/mL (≈ 1.17 µM); in experiment [5], 0.4 µg/mL (≈ 1.17 µM). Further, the IC50 in experiment [2] came to 169 nM.

For `CCCC[C@H](CN(O)C=O)C(=O)[C@H](NC(=O)OC(C)(C)C)C(C)(C)C`, the MIC in experiment [1] stood at 6.3 µg/mL (≈ 17.6 µM); in experiment [3], 100 µg/mL (≈ 279 µM); in experiment [4], 0.1 µg/mL (≈ 0.279 µM); in experiment [5], 3.2 µg/mL (≈ 8.93 µM). The compound also returned an IC50 in experiment [2] of 603 nM.

As for `CCCC[C@H](CN(O)C=O)C(=O)[C@@H](NC(=O)OC(C)(C)C)C(C)C`, the MIC came out at 1.6 µg/mL (≈ 4.65 µM) in experiment [1], 12.5 µg/mL (≈ 36.3 µM) in experiment [3], 0.1 µg/mL (≈ 0.29 µM) in experiment [4] and 1.6 µg/mL (≈ 4.65 µM) in experiment [5]. This compound also showed an IC50 in experiment [2] of 183 nM.

On to `CCCC[C@H](CN(O)C=O)C(=O)[C@H](C)NC(=O)OC(C)(C)C`, for which the MIC in experiment [1] turned out to be 3.2 µg/mL (≈ 10.1 µM); in experiment [3] it was 12.5 µg/mL (≈ 39.5 µM); in experiment [4], 1.6 µg/mL (≈ 5.06 µM); in experiment [5], 0.8 µg/mL (≈ 2.53 µM). Moreover, the IC50 in experiment [2] was determined as 330 nM.

Consider `COc1ccccc1NC(=O)N[C@@H](C(=O)N(CC(=O)NO)CC1CCCC1)C(C)(C)C`, for which the MIC was 0.2 µg/mL (≈ 0.46 µM) in experiment [1], 50 µg/mL (≈ 115 µM) in experiment [3], 0.1 µg/mL (≈ 0.23 µM) in experiment [4] and 0.2 µg/mL (≈ 0.46 µM) in experiment [5]. The IC50 in experiment [2] came out at 29 nM.

As to `CCCC[C@H](CN(O)C=O)C(=O)[C@@H](NC(=O)c1ccccc1)C(C)C`, the MIC was 3.2 µg/mL (≈ 9.18 µM) in experiment [1], 3.2 µg/mL (≈ 9.18 µM) in experiment [3], 0.4 µg/mL (≈ 1.15 µM) in experiment [4] and 0.2 µg/mL (≈ 0.574 µM) in experiment [5]. The concentration for half-maximal inhibition (IC50) in experiment [2] was 51 nM.

`CCCC[C@H](CN(O)C=O)C(=O)[C@@H](NC(=O)C(C)C)C(C)C`: the MIC came out at 0.8 µg/mL (≈ 2.54 µM) in experiment [1], 3.2 µg/mL (≈ 10.2 µM) in experiment [3], 1.6 µg/mL (≈ 5.09 µM) in experiment [4] and 0.2 µg/mL (≈ 0.636 µM) in experiment [5]. 60 nM corresponded to half-maximal inhibition in experiment [2] (IC50).

Regarding `CCCC[C@H](CN(O)C=O)C(=O)[C@@H](NC(=O)c1ccccn1)C(C)C`, the MIC in experiment [1] was 0.2 µg/mL (≈ 0.572 µM); in experiment [3] it was 1.6 µg/mL (≈ 4.58 µM); in experiment [4] it was 0.1 µg/mL (≈ 0.286 µM); in experiment [5], 0.1 µg/mL (≈ 0.286 µM). Also, the IC50 in experiment [2] was 117 nM.

For the compound `CCCC[C@H](CN(O)C=O)C(=O)[C@@H](NC(=O)c1cccc(OC)c1)C(C)C`, the MIC in experiment [1] came to 0.2 µg/mL (≈ 0.528 µM); in experiment [3], 0.8 µg/mL (≈ 2.11 µM); in experiment [4] it was 0.8 µg/mL (≈ 2.11 µM); in experiment [5], 0.2 µg/mL (≈ 0.528 µM). This compound also yielded an IC50 in experiment [2] of 22 nM.

As for `CCCC[C@H](CN(O)C=O)C(=O)[C@@H](NC(=O)c1cccc(F)c1)C(C)C`, the MIC in experiment [1] is 0.4 µg/mL (≈ 1.09 µM); in experiment [3], 1.6 µg/mL (≈ 4.37 µM); in experiment [4] it was 1.6 µg/mL (≈ 4.37 µM); in experiment [5] it was 0.2 µg/mL (≈ 0.546 µM). Further, the IC50 in experiment [2] was determined as 43 nM.

As for `CCCC[C@H](CN(O)C=O)C(=O)[C@@H](NC(=O)c1cccnc1)C(C)C`, the MIC in experiment [1] came to 0.2 µg/mL (≈ 0.572 µM); in experiment [3], 0.8 µg/mL (≈ 2.29 µM); in experiment [4], 0.1 µg/mL (≈ 0.286 µM); in experiment [5], 0.1 µg/mL (≈ 0.286 µM). The compound further came in with a concentration for half-maximal inhibition (IC50) in experiment [2] of 73 nM.

With `CCCC[C@H](CN(O)C=O)C(=O)[C@@H](NC(=O)c1ccncc1)C(C)C`, the MIC stood at 0.4 µg/mL (≈ 1.14 µM) in experiment [1], 1.6 µg/mL (≈ 4.58 µM) in experiment [3], 0.1 µg/mL (≈ 0.286 µM) in experiment [4] and 0.1 µg/mL (≈ 0.286 µM) in experiment [5]. The compound also had an IC50 in experiment [2] of 52 nM.

Turning to `CCCC[C@H](CN(O)C=O)C(=O)[C@@H](NC(=O)c1ccc2ccccc2n1)C(C)C`, the MIC turned out to be 0.1 µg/mL (≈ 0.25 µM) in experiment [1], 0.4 µg/mL (≈ 1 µM) in experiment [3], 0.1 µg/mL (≈ 0.25 µM) in experiment [4] and 0.2 µg/mL (≈ 0.501 µM) in experiment [5]. In experiment [2], this compound came in with an IC50 of 8 nM.

For `CCCC[C@H](CN(O)C=O)C(=O)[C@@H](NC(=O)c1nccc2ccccc12)C(C)C`, the MIC in experiment [1] amounted to 0.4 µg/mL (≈ 1 µM); in experiment [3] it was 6.4 µg/mL (≈ 16 µM); in experiment [4], 0.1 µg/mL (≈ 0.25 µM); in experiment [5], 0.4 µg/mL (≈ 1 µM). In experiment [2], half-maximal inhibition (IC50) was put at 5 nM.

Consider `CCCC[C@H](CN(O)C=O)C(=O)[C@@H](NC(=O)NC(C)C)C(C)C`, for which the MIC came out at 0.4 µg/mL (≈ 1.21 µM) in experiment [1], 1.6 µg/mL (≈ 4.86 µM) in experiment [3], 0.8 µg/mL (≈ 2.43 µM) in experiment [4] and 0.1 µg/mL (≈ 0.304 µM) in experiment [5]. Also, it took 16 nM to reach half-maximal inhibition in experiment [2] (IC50).

In the case of `CCCC[C@H](CN(O)C=O)C(=O)[C@@H](NC(=O)NC1CCCC1)C(C)C`, the MIC in experiment [1] was determined as 1.6 µg/mL (≈ 4.5 µM); in experiment [3], 1.6 µg/mL (≈ 4.5 µM); in experiment [4], 0.1 µg/mL (≈ 0.281 µM); in experiment [5], 0.2 µg/mL (≈ 0.563 µM). The 50% inhibitory concentration (IC50) in experiment [2] was found to be 10 nM.

With `CCCC[C@H](CN(O)C=O)C(=O)[C@@H](NC(=O)Nc1ccccc1)C(C)C`, the MIC in experiment [1] is 0.4 µg/mL (≈ 1.1 µM); in experiment [3] it was 1.6 µg/mL (≈ 4.4 µM); in experiment [4], 0.1 µg/mL (≈ 0.275 µM); in experiment [5] it was 0.4 µg/mL (≈ 1.1 µM). For the same compound, the IC50 in experiment [2] was determined as 49 nM.

Turning to `CCCC[C@H](CN(O)C=O)C(=O)[C@@H](NC(=O)Nc1ccccc1OC)C(C)C`, the MIC in experiment [1] is 0.1 µg/mL (≈ 0.254 µM); in experiment [3], 0.8 µg/mL (≈ 2.03 µM); in experiment [4], 0.1 µg/mL (≈ 0.254 µM); in experiment [5], 0.2 µg/mL (≈ 0.508 µM). Moreover, half-maximal inhibition in experiment [2] (IC50) required 41 nM.

`CCCC[C@H](CN(O)C=O)C(=O)[C@@H](NC(=O)Nc1ccccc1F)C(C)C`: the MIC in experiment [1] was found to be 0.2 µg/mL (≈ 0.524 µM); in experiment [3], 0.4 µg/mL (≈ 1.05 µM); in experiment [4], 0.1 µg/mL (≈ 0.262 µM); in experiment [5], 0.1 µg/mL (≈ 0.262 µM). In experiment [2], this compound came in with an IC50 of 41 nM.

As for `CCCC[C@H](CN(O)C=O)C(=O)[C@@H](NC(=O)Nc1ccccn1)C(C)C`, the MIC in experiment [1] was found to be 1.6 µg/mL (≈ 4.39 µM); in experiment [3], 0.8 µg/mL (≈ 2.2 µM); in experiment [4], 0.1 µg/mL (≈ 0.274 µM); in experiment [5], 0.1 µg/mL (≈ 0.274 µM). For the same compound, the IC50 in experiment [2] came out at 43 nM.
